# From patent US20250351832A1, “PHYTOCHEMICALS AS BIOPESTICIDES AND BIOSTIMULANTS” (KAY BEE BIO ORGANICS PVT. LTD., priority 2024, published 2025)
# Entries after “also recorded” stand apart in the source; their conditions may differ. Like-named read-outs stand apart in the source and are kept apart here.
# What was measured:
# Helicoverpa armigera [1] = conditions: Helicoverpa armigera on okra fruits, dose 1 ml/gm/lit., 72 Hrs.; for Total No. of dead insect at 72 Hrs.: 10 insects/treatment, 4 replications; for % Corrected Mortality at 72 Hrs.: corrected for water control
# Mealy Bug [2] = conditions: Mealy Bug on cotton leaves, dose 1 ml/gm/lit., 48 Hrs.; for Total No. of dead insect at 48 Hrs.: 10 insects/treatment, 4 replications; for % Corrected Mortality at 48 Hrs.: corrected for water control
# [3] = Table 13, effect on plants, descriptive; cited from earlier work
# Aphid [4] = conditions: Aphids on cotton plants, green house; dose 1 ml/gm/lit.; 10 insects/plant, 10 plants/treatment; 48 hrs
# Mealy Bug [5] = conditions: mealy bug on cotton plants, green house, dose 1 ml/gm/lit. spray; for % Mortality at 48 Hrs. / Total No. of dead insect at 48 Hrs.: 48 hrs after application; for % Corrected Mortality at 48 Hrs.: corrected for water control
# Mite [6] = conditions: Dose 1 ml/gm/lit.; for Total No. of dead insect at 48 Hrs.: 10 insects/treatment, 4 replications, okra leaves
# Helicoverpa armigera [7] = conditions: Helicoverpa armigera 3rd instar on chickpea plants, dose 1 ml/gm/lit. spray; for % Mortality at 72 Hrs.: 72 hrs after application; for % Corrected Mortality at 72 Hrs.: corrected for water control
# Mite [8] = conditions: mite on okra plants, green house, dose 1 ml/gm/lit. spray; for % Mortality at 48 Hrs. / Total No. of dead insect at 48 Hrs.: 48 hrs after application; for % Corrected Mortality at 48 Hrs.: corrected for water control
# Alternaria alternata [9] = assay: In vitro poisoned food technique against fungus (Ex. 20); format: cell-based; conditions: poisoned food technique, PDA medium, dose 1 ml/gm/lit., after seven days; for inhibition of growth at 1 mL or g/L: vs untreated control, read-out: % Inhibition of growth
# Thrips [10] = conditions: thrips on cotton plants, greenhouse, dose 1 ml/gm/lit. spray; for % Mortality at 48 Hrs. / Total No. of dead insect at 48 Hrs.: 48 hrs after application; for % Corrected Mortality at 48 Hrs.: corrected for water control
# Spodoptera litura [11] = conditions: Spodoptera litura on castor leaves; dose 1 ml/gm/lit.; 10 insects/treatment; 72 hrs after application
# Aphid [12] = conditions: Dose 1 ml/gm/lit.; for Total No. of dead insect at 48 Hrs.: 10 insects/treatment, 4 replications, cotton leaves
# Alternaria alternata [13] = assay: Alternaria leaf spot/blight on inoculated tomato plants (Ex. 28); format: in vivo; conditions: tomato plants, Alternaria alternata; after 7 days; dose 1 ml/gm/lit
# Spodoptera litura [14] = conditions: Spodoptera litura 3rd instar on cabbage plants, dose 1 ml/gm/lit. spray; for % Mortality at 72 Hrs.: 72 hrs after application; for % Corrected Mortality at 72 Hrs.: corrected for water control
# Spodoptera litura [15] = assay: whole plant or invertebrate; conditions: 72 h
# tomato seedlings = assay: Response of tomato plants, greenhouse growth (Ex. 30); format: in vivo; conditions: tomato seedlings, dose 1 ml/gm/lit; for Plant Height 5th Day / Stem Girth 5th Day / CCI 5th Day: 5th day after application; for Plant Height 10th Day / Stem Girth 10th Day / CCI 10th Day: 10th day after application; for Plant Height % Increase over pre on 10th Day / Stem Girth % Increase over pre on 10th Day / CCI % Increase over pre on 10th Day / Root Length (cm) 10th Day / Root Length % Increase over control: 10th day; for Root Length % Increase over control: vs water control
# Thrips [16] = conditions: Thrips on cotton leaves; dose 1 ml/gm/lit.; 10 insects/treatment; 48 hrs after application
# Aphid [17] = assay: whole plant or invertebrate; conditions: 48 h
# chili seedlings = assay: Response of chili plants, greenhouse growth (Ex. 31); format: in vivo; conditions: chili seedlings, dose 1 ml/gm/lit; for CCI 5th Day / Plant Height (cm) 5th Day: 5th day after application; for CCI 10th Day / Plant Height (cm) 10th Day: 10th day after application; for CCI % Increase over pre on 10th Day / Plant Height % Increase over pre on 10th Day / Root Lenght (cm) 10th Day / Stem Girth % Increase over pre on 10th Day / Root Lenght % Increase over control: 10th day; for Root Lenght % Increase over control: vs water control
# Thrips [18] = assay: whole plant or invertebrate; conditions: in Gossypium hirsutum, 48 h
# [19] = read-out: % Corrected Mortality at 72 Hrs.
# [20] = read-out: % Mortality at 72 Hrs.
# [21] = read-out: % Corrected Mortality at 48 Hrs.
# [22] = read-out: % Mortality at 48 Hrs.
structure (smiles),measurement,setting,value
"CC12CCC(CC1)C(C)(C)O2 [1,8 cineole]",Total No. of dead insect at 72 Hrs.,Helicoverpa armigera [1],5.50
same,% Mortality at 72 Hrs.,Helicoverpa armigera [1],55.00%
same,% Corrected Mortality at 72 Hrs.,Helicoverpa armigera [1],55.00%
same,Total No. of dead insect at 48 Hrs.,Mealy Bug [2],5.50
same,% Mortality at 48 Hrs.,Mealy Bug [2],55.00%
same,% Corrected Mortality at 48 Hrs.,Mealy Bug [2],52.63%
same,Phytotonic Effect,[3],Boost chlorophyll; also recorded: Trigger the nutrition
same,Total No. of dead insect at 48 Hrs.,Aphid [4],62.50
same,% Mortality at 48 Hrs.,Mealy Bug [5],45.00%
same,Total No. of dead insect at 48 Hrs.,Mealy Bug [5],45.00
same,% Corrected Mortality at 48 Hrs.,Mealy Bug [5],38.89%
same,Total No. of dead insect at 48 Hrs.,Mite [6],2.50
same,% Corrected Mortality at 48 Hrs.,Mite [6],18.92%
same,% Mortality at 48 Hrs.,Mite [6],25.00%
same,% Mortality at 72 Hrs.,Helicoverpa armigera [7],52.50%
same,% Corrected Mortality at 72 Hrs.,Helicoverpa armigera [7],52.50%
same,% Mortality at 48 Hrs.,Mite [8],22.50%
same,Total No. of dead insect at 48 Hrs.,Mite [8],22.50
same,% Corrected Mortality at 48 Hrs.,Mite [8],18.42%
same,Mean colony Diameter (mm),Alternaria alternata [9],72.00 mm
same,inhibition of growth at 1 mL or g/L,Alternaria alternata [9],18.2%
same,% Mortality at 48 Hrs.,Thrips [10],67.50%
same,Total No. of dead insect at 48 Hrs.,Thrips [10],67.50
same,% Corrected Mortality at 48 Hrs.,Thrips [10],63.89%
same,Total No. of dead insect at 72 Hrs.,Spodoptera litura [11],6.00
same,Total No. of dead insect at 48 Hrs.,Aphid [12],6.50
same,% Corrected Mortality at 48 Hrs.,Aphid [12],60.00%
same,% Mortality at 48 Hrs.,Aphid [12],65.00%
same,% Disease reduction over Control,Alternaria alternata [13],46.28%
same,% Mortality at 72 Hrs.,Spodoptera litura [14],70.00%
same,% Corrected Mortality at 72 Hrs.,Spodoptera litura [14],68.42%
same,mortality at 1 mL or g/L,Spodoptera litura [15]; [19],57.9%
same,mortality at 1 mL or g/L,Spodoptera litura [15]; [20],60%
same,Plant Height 5th Day,tomato seedlings,6.84 cm
same,Stem Girth 5th Day,tomato seedlings,1.74 mm
same,Plant Height 10th Day,tomato seedlings,7.53 cm
same,Stem Girth 10th Day,tomato seedlings,2.16 mm
same,Plant Height % Increase over pre on 10th Day,tomato seedlings,29.60%
same,Stem Girth % Increase over pre on 10th Day,tomato seedlings,58.82%
same,CCI 5th Day,tomato seedlings,13.55
same,CCI % Increase over pre on 10th Day,tomato seedlings,26.08%
same,Root Length (cm) 10th Day,tomato seedlings,4.07 cm
same,CCI 10th Day,tomato seedlings,14.55
same,Root Length % Increase over control,tomato seedlings,22.24%
same,Total No. of dead insect at 48 Hrs.,Thrips [16],7.00
same,mortality at 1 mL or g/L,Aphid [17]; [21],55.9%
same,mortality at 1 mL or g/L,Aphid [17]; [22],62.5%
same,CCI 5th Day,chili seedlings,9.69
same,Plant Height (cm) 5th Day,chili seedlings,6.99 cm
same,CCI % Increase over pre on 10th Day,chili seedlings,42.63%
same,Plant Height % Increase over pre on 10th Day,chili seedlings,49.60%
same,Root Lenght (cm) 10th Day,chili seedlings,3.26 cm
same,Stem Girth % Increase over pre on 10th Day,chili seedlings,44.88%
same,CCI 10th Day,chili seedlings,12.58
same,Plant Height (cm) 10th Day,chili seedlings,7.54 cm
same,Root Lenght % Increase over control,chili seedlings,19.07%
same,mortality at 1 mL or g/L,Thrips [18]; [21],65.7%
same,mortality at 1 mL or g/L,Thrips [18]; [22],70%
C=CCc1ccc(OC)cc1 [Methyl chavicol],Total No. of dead insect at 72 Hrs.,Helicoverpa armigera [1],6.25
same,% Mortality at 72 Hrs.,Helicoverpa armigera [1],62.50%
same,% Corrected Mortality at 72 Hrs.,Helicoverpa armigera [1],62.50%
same,Total No. of dead insect at 48 Hrs.,Mealy Bug [2],6.25
same,% Mortality at 48 Hrs.,Mealy Bug [2],62.50%
same,% Corrected Mortality at 48 Hrs.,Mealy Bug [2],60.53%
same,Total No. of dead insect at 48 Hrs.,Aphid [4],67.50
same,% Mortality at 48 Hrs.,Mealy Bug [5],60.00%
same,Total No. of dead insect at 48 Hrs.,Mealy Bug [5],60.00
same,% Corrected Mortality at 48 Hrs.,Mealy Bug [5],55.56%
same,Total No. of dead insect at 48 Hrs.,Mite [6],4.50
same,% Corrected Mortality at 48 Hrs.,Mite [6],40.54%
same,% Mortality at 48 Hrs.,Mite [6],45.00%
same,% Mortality at 72 Hrs.,Helicoverpa armigera [7],67.50%
same,% Corrected Mortality at 72 Hrs.,Helicoverpa armigera [7],67.50%
same,% Mortality at 48 Hrs.,Mite [8],42.50%
same,Total No. of dead insect at 48 Hrs.,Mite [8],42.50
same,% Corrected Mortality at 48 Hrs.,Mite [8],39.47%
same,Mean colony Diameter (mm),Alternaria alternata [9],54.00 mm
same,inhibition of growth at 1 mL or g/L,Alternaria alternata [9],38.6%
same,% Mortality at 48 Hrs.,Thrips [10],57.50%
same,Total No. of dead insect at 48 Hrs.,Thrips [10],57.50
same,% Corrected Mortality at 48 Hrs.,Thrips [10],52.78%
same,Total No. of dead insect at 72 Hrs.,Spodoptera litura [11],6.50
same,Total No. of dead insect at 48 Hrs.,Aphid [12],6.50
same,% Corrected Mortality at 48 Hrs.,Aphid [12],60.00%
same,% Mortality at 48 Hrs.,Aphid [12],65.00%
same,% Disease reduction over Control,Alternaria alternata [13],48.76%
same,% Mortality at 72 Hrs.,Spodoptera litura [14],62.50%
same,% Corrected Mortality at 72 Hrs.,Spodoptera litura [14],60.53%
same,mortality at 1 mL or g/L,Spodoptera litura [15]; [19],63.2%
same,mortality at 1 mL or g/L,Spodoptera litura [15]; [20],65%
same,Plant Height 5th Day,tomato seedlings,7.16 cm
same,Stem Girth 5th Day,tomato seedlings,1.50 mm
same,Plant Height 10th Day,tomato seedlings,7.86 cm
same,Stem Girth 10th Day,tomato seedlings,2.10 mm
same,Plant Height % Increase over pre on 10th Day,tomato seedlings,28.43%
same,Stem Girth % Increase over pre on 10th Day,tomato seedlings,55.56%
same,CCI 5th Day,tomato seedlings,14.23
same,CCI % Increase over pre on 10th Day,tomato seedlings,23.12%
same,Root Length (cm) 10th Day,tomato seedlings,4.13 cm
same,CCI 10th Day,tomato seedlings,15.23
same,Root Length % Increase over control,tomato seedlings,24.05%
same,Total No. of dead insect at 48 Hrs.,Thrips [16],5.50
same,mortality at 1 mL or g/L,Aphid [17]; [21],61.8%
same,mortality at 1 mL or g/L,Aphid [17]; [22],67.5%
same,CCI 5th Day,chili seedlings,12.70
same,Plant Height (cm) 5th Day,chili seedlings,5.97 cm
same,CCI % Increase over pre on 10th Day,chili seedlings,38.53%
same,Plant Height % Increase over pre on 10th Day,chili seedlings,44.42%
same,Root Lenght (cm) 10th Day,chili seedlings,3.11 cm
same,Stem Girth % Increase over pre on 10th Day,chili seedlings,45.91%
same,CCI 10th Day,chili seedlings,15.1
same,Plant Height (cm) 10th Day,chili seedlings,6.21 cm
same,Root Lenght % Increase over control,chili seedlings,13.83%
same,mortality at 1 mL or g/L,Thrips [18]; [21],48.6%
same,mortality at 1 mL or g/L,Thrips [18]; [22],55%
